For data set [1], the system named is E. coli (ATCC CRM 8739). The class given is cell-based, Escherichia coli. As to conditions: ATCC CRM 8739, 24 h. As for the experimental part:
(§1) The MBIC and MBEC assays were performed to measure the inhibition and eradication of bacterial biofilm in the presence of different concentrations of peptides. Gram-positive bacteria were inoculated in Luria–Bertani (LB) broth at 37 °C overnight whereas Gram-negative bacteria were inoculated in tryptic soy broth (TSB), and then sub-cultured until reaching the logarithmic growth phase by measuring the OD values at a wavelength of 550nm. For the MBIC assay, 99 µL of diluted bacterial suspension (5 × 10^5 CFU/mL) was mixed with 1 µL of prepared peptide solutions in the wells of a round-bottomed 96-well plate, achieving the final concentrations from 512 to 1 µM, and then incubated at 37 °C for 24 h in a shaking incubator at 200 revolutions per minute (rpm). After this, the plate was washed twice by PBS and fixed with methanol for 30 min. For MBEC assay, 100 µL of diluted bacterial suspension (5 × 10^5 CFU/mL) was seeded into a round-bottomed 96-well plate and incubated at 37 °C for 24 h in a shaking incubator at 200 rpm to obtain mature biofilm. After this, plates were washed twice by PBS and incubated with different concentrations of peptide solution from 512 to 1 µM at 37 °C for 24 h. Afterwards, the plate was washed twice with PBS and fixed with methanol for 30 min. Then, both MBIC and MBEC plates were stained by 130 μL of 0.1% (g/v) crystal violet solutions for 30 min and washed with PBS until no apparent staining was observed. Evaporating crystal violet stains were dissolved by 33% (v/v) acetic acid, and the absorbance values were measured by a Synergy HT Microplate Reader (BioTek, Minneapolis, MN, USA) set to 595 nm. The minimum concentration that inhibited the formation of biofilm was defined when compared to the negative control group, as the MBIC. The minimum concentration that eradicated the biofilm was defined, when compared to the negative control group, as the MBEC. The biofilm assays were performed in triplicate.

Data set [2] concerns K. pneumoniae (ATCC CRM 43816). The class given is cell-based, Klebsiella pneumoniae. The note with it: ATCC CRM 43816, 24 h. As for the experimental part: as §1
Data set [3] concerns P. aeruginosa (ATCC CRM 9027). The class given is cell-based, Pseudomonas aeruginosa. The note with it: ATCC CRM 9027. As to the method:
(§2) The antimicrobial activity of the peptides was determined through the minimum inhibitory concentrations (MICs) and the minimum bactericidal concentration (MBCs) using the broth-dilution method in a 96-well plate, as described in the previous study. Six bacteria, including the Gram-positive bacteria, S. aureus (ATCC CRM 6538), MRSA (ATCC CRM 12493) and E. faecalis (NCTC 12697), the Gram-negative bacteria, E. coli (ATCC CRM 8739), K. pneumoniae (ATCC CRM 43816) and P. aeruginosa (ATCC CRM 9027), the yeast, C. albicans (ATCC CRM 10231) and clinical isolates, S. aureus (B042 V2E1 A), MRSA (B038 V1S1 A), E. coli (ATCC BAA-2340) and K. pneumoniae (ATCC BAA-1705) were used in these assays to evaluate the antimicrobial potency of the two peptides by determining their MICs and MBCs. All bacteria were cultured in MHB and the yeast, C. albicans was cultured in YPD broth overnight. Then, the microorganisms were sub-cultured and diluted to the final concentration of 2 × 10^5 CFU/mL to 5 × 10^5 CFU/mL. The Norfloxacin and amphotericin B were used as positive controls for the bacteria and yeast, respectively. The assay was repeated three times, with five replicates at each time.

Data set [4] has as its system P. aeruginosa (ATCC CRM 9027). In kind it is cell-based, Pseudomonas aeruginosa. The note with it: ATCC CRM 9027, 24 h. As for the experimental part:
as §1

For data set [5], the system named is MRSA (ATCC CRM 12493). The class given is cell-based, methicillin-resistant S. aureus. As to conditions: ATCC CRM 12493. As for the experimental part: as §2
For data set [6], the system named is MRSA (B038 V1S1 A). The class given is cell-based, methicillin-resistant S. aureus. As to conditions: B038 V1S1 A. As for the experimental part: as §2
Data set [7] concerns horse erythrocytes. In kind it is cell-based. As to the method: The haemolysis assays were performed by incubating prewashed erythrocyte suspension obtained from fresh defibrinated horse blood (TCS Biosciences Ltd., Buckingham, UK) with a range of peptides at final concentrations from 512 to 1 μM, for 2 h at 37 °C. The red cell suspensions were washed with phosphate-buffered saline (PBS) until the supernatant was clear and then diluted with PBS to form a 2% cell suspension. Peptides were 2-fold diluted by the 2% cell suspension to reach the final concentration range from 512 to 1 μM. The haemolysis of the cell suspensions with either 1% (v/v) Triton X-100 or PBS, were considered as positive controls and negative controls, respectively. After incubation, the extent of haemolysis was determined by measuring the absorbance of the supernatant from each sample at 570 nm with a Synergy HT plate reader (BioTek, USA).
Data were analysed using Prism (Version 8.2.1; GraphPad Software, Inc, San Diego, CA, USA). Error bars in the graphs represented standard errors of means (SEM) of nine repeats from three independent tests. The statistical significance was calculated using two-way ANOVA and is indicated as ns (non-significant difference), * (p < 0.05), ** (p < 0.01), *** (p < 0.001), ****(p < 0.0001). The HC10, HC50 and IC50 values were calculated using the online tool AAT Bioquest (https://www.aatbio.com/index.html, accessed on 6 May 2022).

Data set [8] deals with MRSA (ATCC CRM 12493). The class given is cell-based, methicillin-resistant S. aureus. As to conditions: ATCC CRM 12493, 24 h. As to the method: as §1
The subject of data set [9] is E. faecalis (NCTC 12697). The class given is cell-based, Enterococcus faecalis. As to conditions: NCTC 12697. As for the experimental part: as §2
The subject of data set [10] is E. coli (ATCC CRM 8739). The class given is cell-based, Escherichia coli. The note with it: ATCC CRM 8739. As to the method:
as §2

Data set [11] has as its system E. coli (ATCC BAA-2340). The class given is cell-based, Escherichia coli. As to conditions: ATCC BAA-2340. As to the method:
as §2

Data set [12] concerns K. pneumoniae (ATCC BAA-1705). In kind it is cell-based, Klebsiella pneumoniae. The note with it: ATCC BAA-1705. As to the method:
as §2

The test system of data set [13] is K. pneumoniae (ATCC CRM 43816). The class given is cell-based, Klebsiella pneumoniae. The note with it: ATCC CRM 43816. As to the method: as §2
Data set [14] deals with S. aureus (ATCC CRM 6538). The class given is cell-based, Staphylococcus aureus. As to conditions: ATCC CRM 6538. As for the experimental part:
as §2

Data set [15] relates to S. aureus (B042 V2E1 A). In kind it is cell-based, Staphylococcus aureus. The note with it: B042 V2E1 A. As to the method: as §2
Data set [16] concerns S. aureus (ATCC CRM 6538). The class given is cell-based, Staphylococcus aureus. As to conditions: ATCC CRM 6538, 24 h. As for the experimental part: as §1
The subject of data set [17] is C. albicans (ATCC CRM 10231). The class given is cell-based, Candida albicans. As to conditions: ATCC CRM 10231. As to the method:
as §2

Data set [18] relates to E. faecalis (NCTC 12697). The class given is cell-based, Enterococcus faecalis. As to conditions: NCTC 12697, 24 h. As to the method: as §1
Data set [19] concerns Gram-positive and Gram-negative bacteria. Also on record: method as in PMID 21193000. The note with it: cited from earlier work.
Data set [20] concerns C. albicans. Also on record: method as in PMID 21911019. The note with it: at 100 μM; cited from earlier work.
Data set [21] relates to methicillin-resistant S. aureus (MRSA). Further details: method as in PMID 21911019. The note with it: cited from earlier work.
In data set [22] the test system is Escherichia coli (E. coli). Also on record: method as in PMID 21911019. As to conditions: cited from earlier work.
Data set [23] deals with Staphylococcus aureus (S. aureus). Further details: method as in PMID 21911019. The note with it: cited from earlier work.

Like-named read-outs stand apart in the source and are kept apart here. Where no end group is shown, it is not given here.

Take FVNVLDKI-NH2 [FV-8, FVNVLDKI-NH2]: the MBEC in data set [1], in data set [2], in data set [4], in [8], in data set [16] and in data set [18] was greater than 512 µM each time. In addition, the MBIC in [1], in data set [2], in data set [4], in data set [8], in data set [16] and in [18] was greater than 512 µM in each case. Moreover, the MBC in data set [3], in [5], in [6], in data set [9], in data set [10] and in [11] was greater than 512 µM throughout. Further, the MBC in [12], in data set [13], in [14], in [15] and in data set [17] was greater than 512 µM each time. In addition, the MIC in data set [3], in data set [5], in data set [6], in data set [9], in [10] and in data set [11] was greater than 512 µM in each case. Besides, the MIC in data set [12], in data set [13], in data set [14], in [15] and in data set [17] was greater than 512 µM throughout. Moreover, the HC10 in data set [7] amounted to 504.21 µM; in data set [7] (red cells of horse, 2 h) it was 583.6 µM.
Consider FVNVLDKIR-NH2 [FV-9, FVNVLDKIR-NH2], for which the MBEC in [1], in data set [2], in data set [4], in data set [8], in data set [16] and in data set [18] was greater than 512 µM in each case. In addition, the MBIC in [1], in [2], in [4], in data set [8], in data set [16] and in data set [18] was greater than 512 µM each time. Besides, the MBC in [3], in data set [5], in [6], in data set [9], in [10] and in [11] was greater than 512 µM each time. The MBC in [12], in data set [13], in data set [14], in data set [15] and in [17] was greater than 512 µM each time. Besides, the MIC in [3], in [5], in data set [6], in [9], in [10] and in data set [11] was greater than 512 µM in each case. The MIC in [12], in data set [13], in data set [14], in [15] and in [17] was greater than 512 µM in each case. The HC10 in data set [7] came out at 504.21 µM; in data set [7] (red cells of horse, 2 h), 504.2 µM.
Take “GKKLFVNVLDKIRCKVAGGC [palustrin-2ISb-des-C7-des-N9, literature analogue with one helical part of Pa2ISb-des-C7]”: the “activity against Gram-positive and Gram-negative bacteria” value in data set [19] is “little activity”.
As for “GLWNSIKIAGKKLFVNVLDKIRCKVAGGCKTSPDVE [palustrin-2ISb, parent antimicrobial peptide of 36 residues isolated from Odorrana ishikawae]”, the “activity against C. albicans” value in data set [20] is reported as “no activity”. Moreover, the MIC in data set [21] is 100 µM; in [22], 6.3 µM; in data set [23], 6.3 µM.

By MIC is commonly meant the lowest concentration found to suppress growth.

Values taken from publication PMC9405102, “Targeted Modification and Structure-Activity Study of GL-29, an Analogue of the Antimicrobial Peptide Palustrin-2ISb” (Antibiotics, 2022).
